Values after ≈ are worked out from the molar mass of the structure shown.
How the values were obtained:
OAT1 = target: T1, OAT1 (Homo sapiens, UniProt Q4U2R8); assay: Uptake transporter inhibition in transfected HEK 293 or MDCK cells; type: in vitro ADME; details: read-out: as an Inhibitor, IC50
T1 construct: host or cells: MDCK
T1 sequence (Q4U2R8 1-563): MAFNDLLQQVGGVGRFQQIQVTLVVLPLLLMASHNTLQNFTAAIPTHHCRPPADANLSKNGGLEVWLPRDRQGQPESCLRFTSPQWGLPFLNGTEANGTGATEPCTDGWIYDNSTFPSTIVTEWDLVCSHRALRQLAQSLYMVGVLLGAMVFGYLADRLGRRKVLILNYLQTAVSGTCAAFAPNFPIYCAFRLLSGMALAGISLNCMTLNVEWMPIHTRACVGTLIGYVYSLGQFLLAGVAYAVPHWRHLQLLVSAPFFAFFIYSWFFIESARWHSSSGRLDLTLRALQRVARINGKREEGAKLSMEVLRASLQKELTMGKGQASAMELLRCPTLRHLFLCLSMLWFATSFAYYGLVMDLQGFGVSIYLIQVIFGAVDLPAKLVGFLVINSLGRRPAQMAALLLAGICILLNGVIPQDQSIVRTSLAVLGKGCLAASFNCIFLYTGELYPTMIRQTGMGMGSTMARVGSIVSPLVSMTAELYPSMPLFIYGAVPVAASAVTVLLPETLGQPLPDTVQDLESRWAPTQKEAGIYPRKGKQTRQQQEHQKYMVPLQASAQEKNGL
Description: (§1) Cell monolayers were preincubated (37 °C) for 15 to 30 min in a transport medium containing the target concentration of EBO or a specific inhibitor without substrate. Following the removal of preincubation solutions, appropriate working solutions containing EBO at the target concentration plus the probe substrate were added to the wells in triplicate. Separate sets of triplicate wells were designated for probe substrate only and probe substrate plus the specific inhibitors, to determine the maximal uptake rate and maximal inhibition of uptake, respectively. After incubation at 37 °C for each transporter, the working solution was removed from each well and the experiment was stopped by washing three times with cold (4 °C) DPBS. Depending on the substrate label, cells were either lysed for the analysis of total radioactivity (liquid scintillation counter) or LC-MS/MS methods. For measuring relative fluorescence (FLUOstar Galaxy, Cary, NC, USA), cells were not lysed.

OATP1B1 = target: T2, OATP1B1 (Homo sapiens, UniProt Q9Y6L6); assay: as above; type: in vitro ADME
T2 construct: host or cells: MDCK
T2 sequence (Q9Y6L6 1-691): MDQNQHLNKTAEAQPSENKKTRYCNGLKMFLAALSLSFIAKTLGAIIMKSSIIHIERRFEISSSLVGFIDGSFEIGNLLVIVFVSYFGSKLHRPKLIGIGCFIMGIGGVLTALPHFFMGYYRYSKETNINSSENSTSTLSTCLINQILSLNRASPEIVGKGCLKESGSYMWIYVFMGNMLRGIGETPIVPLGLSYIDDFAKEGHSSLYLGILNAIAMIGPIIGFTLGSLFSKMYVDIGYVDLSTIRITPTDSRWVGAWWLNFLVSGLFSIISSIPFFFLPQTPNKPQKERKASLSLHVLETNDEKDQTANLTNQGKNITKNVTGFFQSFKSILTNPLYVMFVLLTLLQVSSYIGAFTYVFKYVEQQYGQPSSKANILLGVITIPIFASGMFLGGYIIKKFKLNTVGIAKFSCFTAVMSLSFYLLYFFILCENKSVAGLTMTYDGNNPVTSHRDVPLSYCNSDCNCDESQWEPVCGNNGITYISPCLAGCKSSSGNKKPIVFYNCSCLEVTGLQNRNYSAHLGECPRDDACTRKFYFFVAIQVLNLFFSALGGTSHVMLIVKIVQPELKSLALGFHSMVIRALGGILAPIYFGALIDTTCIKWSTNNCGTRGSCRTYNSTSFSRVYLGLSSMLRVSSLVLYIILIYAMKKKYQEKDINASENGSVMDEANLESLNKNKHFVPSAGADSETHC
Description: as §1

OATP1B3 = target: T3, OATP1B3 (Homo sapiens, UniProt Q9NPD5); assay: as above; type: in vitro ADME
T3 construct: host or cells: MDCK
T3 sequence (Q9NPD5 1-702): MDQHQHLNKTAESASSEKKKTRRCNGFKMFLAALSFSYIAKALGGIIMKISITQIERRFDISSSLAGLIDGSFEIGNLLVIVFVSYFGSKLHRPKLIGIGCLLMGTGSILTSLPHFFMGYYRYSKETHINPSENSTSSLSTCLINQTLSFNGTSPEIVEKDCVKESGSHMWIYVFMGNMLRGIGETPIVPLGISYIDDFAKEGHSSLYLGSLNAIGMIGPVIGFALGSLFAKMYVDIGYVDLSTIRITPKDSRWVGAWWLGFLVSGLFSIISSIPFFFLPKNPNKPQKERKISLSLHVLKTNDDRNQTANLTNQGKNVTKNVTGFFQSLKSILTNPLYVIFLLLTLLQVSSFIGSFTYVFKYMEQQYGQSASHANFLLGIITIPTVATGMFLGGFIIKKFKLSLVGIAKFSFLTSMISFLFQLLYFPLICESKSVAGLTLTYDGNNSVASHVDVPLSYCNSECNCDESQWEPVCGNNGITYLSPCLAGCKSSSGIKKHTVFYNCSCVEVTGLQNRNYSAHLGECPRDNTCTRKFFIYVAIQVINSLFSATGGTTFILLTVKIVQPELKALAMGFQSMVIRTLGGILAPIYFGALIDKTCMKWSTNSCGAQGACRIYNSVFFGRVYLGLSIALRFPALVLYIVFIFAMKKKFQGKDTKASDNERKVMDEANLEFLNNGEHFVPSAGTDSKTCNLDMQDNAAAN
Description: as §1

[1] = test system: HEK 293 or MDCK cell lines; assay: Cytotoxicity in transporter inhibition studies; type: cell-based; details: at the concentrations tested in transporter inhibition studies
[2] = Solubility in hepatocyte incubation medium; type: physicochemical; details: aqueous buffer, read-out: Soluble in hepatocyte incubation medium at
[3] = read-out: as an Inhibitor, IC50

SMILES | IC50 (OAT1) [µM] | inhibition at 500 µM (OATP1B1; human, HEK 293 or MDCK cells transfected with OATP1B1, at 500 µM) [%] | inhibition at 500 µM (OATP1B3; human, HEK 293 or MDCK cells transfected with OATP1B3, at 500 µM) [%] | Cytotoxicity [1] | solubility [2] [mM] | IC50 (OATP1B1; [3]) [µM] | IC50 (OATP1B3; [3]) [µM]
NC[C@H]1OB(O)c2c(OCCCO)cccc21 [EBO, Epetraborole] | > 1000 | 25 | 21 | Neither EBO nor M3 induced any cytotoxicity | 20 (≈ 4740 µg/mL) | – | –
NC[C@H]1OB(O)c2c(OCCC(=O)O)cccc21 [M3] | > 250 | – | – | Neither EBO nor M3 induced any cytotoxicity | 0.25 (≈ 62.8 µg/mL) | > 250 | > 250
